Assay results as given in patent publication US11225505B2, “Antimicrobial polymyxin derivative compounds” (MONASH UNIVERSITY, priority 2015, dated 2022).
In brackets after ≈: the same amount, converted by molar mass. Like-named read-outs stand apart in the source and are kept apart here. Where a SMILES comes first, the peptide text is derived from it. Bridges are numbered along the chain shown (N, C = ends). [ ]: non-standard residue; d: D form. The star is where a group is joined. X66 = O=C(c1c[nH]c(-c2ccccc2)n1)*; X32 = O=C(c1cnc(Cl)c(Cl)c1)*; X1 = O=C(c1ncc(Cl)cc1Cl)*; Dab = NCC[C@H](N)C(=O)O; Abu = CC[C@H](N)C(=O)O; Dap = NC[C@H](N)C(=O)O; X31 = O=C(c1ncccc1Cl)*

What was measured:
Type in all cases: cell-based
[1] = tested on: Klebsiella pneumoniae FADDI-KP032
In short: (§1)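 Broth microdilution, CAMHB, per CLSI M100-S24; lipopeptides as TFA salts; polymyxin B sulphate control. Read-out: MIC. Strains are polymyxin-susceptible; PA022 and AB034 are MDR clinical isolates.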

[2] = tested on: Enterobacter cloacae FADDI-EC006
In short: as §1

[3] = tested on: Klebsiella pneumoniae Kp BM1
In short: (§2)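 Lipopeptide TFA salts were serially diluted in cation-adjusted Mueller-Hinton broth, inoculated with polymyxin-susceptible Gram-negative bacteria and scored for MIC according to CLSI guidance (M100-S24). Polymyxin B sulphate was included as comparator.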

[4] = tested on: Enterobacter cloacae FADDI-EC001
In short: as §2

[5] = tested on: Pseudomonas aeruginosa FADDI-PA038
In short: as §1

[6] = tested on: Pseudomonas aeruginosa ATCC 27853
In short: as §1

[7] = tested on: Pseudomonas aeruginosa FADDI-PA022
In short: as §1

[8] = tested on: Acinetobacter baumannii ATCC 17978
In short: as §1

[9] = tested on: Pseudomonas aeruginosa FADDI-PA01
In short: as §1

[10] = tested on: Klebsiella pneumoniae FADDI-KP022
In short: as §1

[11] = tested on: Enterobacter cloacae FADDI-EC003
In short: as §1

[12] = tested on: Acinetobacter baumannii FADDI-AB034
In short: as §1

[13] = tested on: Acinetobacter baumannii FADDI-AB030; assay: microbe, parasite or virus in culture
In short: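 Lipopeptide TFA salts tested against the multidrug-resistant clinical isolate by CLSI (M100-S24) broth microdilution in cation-adjusted Mueller-Hinton broth, with polymyxin B sulphate as control; MIC read.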

Row | Compound | Minimum inhibitory concentration ([1]; FADDI-KP032) [µg/mL] | Minimum inhibitory concentration ([2]; FADDI-EC006) [µg/mL] | Minimum inhibitory concentration ([3]; Kp BM1) [µg/mL] | Minimum inhibitory concentration ([4]; FADDI-EC001) [µg/mL] | Minimum inhibitory concentration ([5]; FADDI-PA038) [µg/mL] | Minimum inhibitory concentration ([6]; ATCC 27853) [µg/mL] | Minimum inhibitory concentration ([7]; FADDI-PA022) [µg/mL] | Minimum inhibitory concentration ([8]; ATCC 17978) [µg/mL] | Minimum inhibitory concentration ([9]; FADDI-) [µg/mL] | Minimum inhibitory concentration ([10]; FADDI-KP022) [µg/mL] | Minimum inhibitory concentration ([11]; FADDI-EC003) [µg/mL] | Minimum inhibitory concentration ([12]; FADDI-AB034) [µg/mL] | Minimum inhibitory concentration ([13]; FADDI-AB030) [µg/mL] | also measured
1 | CC[C@@H]1NC(=O)[C@@H](CC(C)C)NC(=O)[C@H](CCN)NC(=O)[C@@H](NC(=O)[C@H](CN)NC(=O)[C@@H](NC(=O)[C@H](CCN)NC(=O)c2c[nH]c(-c3ccccc3)n2)[C@@H](C)O)CCNC(=O)[C@H]([C@@H](C)O)NC(=O)[C@H](CCN)NC(=O)[C@H](CCN)NC1=O [Compound 82] (X66-[Dab]T[Dap][Dab][Dab][dL][Abu][Dab][Dab]T; lactam 4-C) |  |  |  |  |  |  |  |  |  |  |  |  |  | Minimum inhibitory concentration ([1]; K. pneumoniae FADDI-KP032, CAMHB broth microdilution): 0.5 µg/mL (≈ 0.432 µM); Minimum inhibitory concentration ([2]; E. cloacae FADDI-EC006, CAMHB broth microdilution): 0.5 µg/mL (≈ 0.432 µM); Minimum inhibitory concentration ([3]; K. pneumoniae Kp BM1, CAMHB broth microdilution): 1 µg/mL (≈ 0.864 µM); Minimum inhibitory concentration ([4]; E. cloacae FADDI-EC001, CAMHB broth microdilution): 0.25 µg/mL (≈ 0.216 µM); Minimum inhibitory concentration ([5]; P. aeruginosa FADDI-PA038, CAMHB broth microdilution): 2 µg/mL (≈ 1.73 µM); Minimum inhibitory concentration ([6]; P. aeruginosa ATCC 27853, CAMHB broth microdilution): 0.5 µg/mL (≈ 0.432 µM); Minimum inhibitory concentration ([7]; P. aeruginosa FADDI-PA022, CAMHB broth microdilution): 0.5 µg/mL (≈ 0.432 µM); Minimum inhibitory concentration ([8]; A. baumannii ATCC 17978, CAMHB broth microdilution): 2 µg/mL (≈ 1.73 µM); Minimum inhibitory concentration ([9]; P. aeruginosa FADDI-PA01, CAMHB broth microdilution): 0.5 µg/mL (≈ 0.432 µM); Minimum inhibitory concentration ([10]; K. pneumoniae FADDI-KP022, CAMHB broth microdilution): <0.125 µg/mL; Minimum inhibitory concentration ([11]; E. cloacae FADDI-EC003, CAMHB broth microdilution): 0.25 µg/mL (≈ 0.216 µM); Minimum inhibitory concentration ([12]; A. baumannii FADDI-AB034, CAMHB broth microdilution): 8 µg/mL (≈ 6.91 µM); Minimum inhibitory concentration ([13]; A. baumannii FADDI-AB030, CAMHB broth microdilution): 4 µg/mL (≈ 3.46 µM)
2 | C[C@@H](O)[C@@H]1NC(=O)[C@H](CCN)NC(=O)[C@H](CCN)NC(=O)[C@H]([C@@H](C)O)NC(=O)[C@@H](Cc2ccccc2)NC(=O)[C@H](CCN)NC(=O)[C@@H](NC(=O)[C@H](CN)NC(=O)[C@@H](NC(=O)[C@H](CCN)NC(=O)c2ncc(Cl)cc2Cl)[C@@H](C)O)CCNC1=O [Compound 11] (X1-[Dab]T[Dap][Dab][Dab][dF]T[Dab][Dab]T; lactam 4-C) | <0.125 | <0.125 | 1 (≈ 0.826 µM) | <0.125 | 1 (≈ 0.826 µM) | 0.25 (≈ 0.206 µM) | 0.25 (≈ 0.206 µM) | 1 (≈ 0.826 µM) | 0.5 (≈ 0.413 µM) | <0.125 | <0.125 | 1 (≈ 0.826 µM) | 2 (≈ 1.65 µM) | 
3 | CC[C@@H]1NC(=O)[C@@H](CC(C)C)NC(=O)[C@H](CCN)NC(=O)[C@@H](NC(=O)[C@H](CN)NC(=O)[C@@H](NC(=O)[C@H](CCN)NC(=O)c2ncccc2Cl)[C@@H](C)O)CCNC(=O)[C@H]([C@@H](C)O)NC(=O)[C@H](CCN)NC(=O)[C@H](CCN)NC1=O [Compound 36] (X31-[Dab]T[Dap][Dab][Dab][dL][Abu][Dab][Dab]T; lactam 4-C) | 1 (≈ 0.888 µM) | 2 (≈ 1.78 µM) | 2 (≈ 1.78 µM) | 0.25 (≈ 0.222 µM) | 1 (≈ 0.888 µM) | 0.5 (≈ 0.444 µM) | 0.5 (≈ 0.444 µM) | 8 (≈ 7.1 µM) | 0.5 (≈ 0.444 µM) | <0.125 | 0.5 (≈ 0.444 µM) | 4 (≈ 3.55 µM) | 4 (≈ 3.55 µM) | 
4 | CC[C@@H]1NC(=O)[C@@H](CC(C)C)NC(=O)[C@H](CCN)NC(=O)[C@@H](NC(=O)[C@H](CN)NC(=O)[C@@H](NC(=O)[C@H](CCN)NC(=O)c2cnc(Cl)c(Cl)c2)[C@@H](C)O)CCNC(=O)[C@H]([C@@H](C)O)NC(=O)[C@H](CCN)NC(=O)[C@H](CCN)NC1=O [Compound 5] (X32-[Dab]T[Dap][Dab][Dab][dL][Abu][Dab][Dab]T; lactam 4-C) | 0.25 (≈ 0.215 µM) | 1 (≈ 0.861 µM) | <0.25 | 0.25 (≈ 0.215 µM) | 0.5 (≈ 0.431 µM) | 1 (≈ 0.861 µM) | 1 (≈ 0.861 µM) | 1 (≈ 0.861 µM) | 0.25 (≈ 0.215 µM) | <0.125 | 0.5 (≈ 0.431 µM) | 0.5 (≈ 0.431 µM) | 0.5 (≈ 0.431 µM) | 
